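Results reflect a 48-hour exposure of cells in 96-well plates to compound at five concentrations. Here, GI50 denotes the concentration required for 50% inhibition of growth.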 Active and inactive are the calls of the source. Cut-off read from the data, not from the text of the source: active = GI50 up to about 1.1 µM and inactive = higher.
Assays:
Assay in all cases: growth of human tumour cells (NCI), 48 h
[1] = system: 786-0
[2] = system: A549
[3] = system: ACHN
[4] = system: CAKI-1
[5] = system: CCRF-CEM
[6] = system: COLO 205
[7] = system: DLD-1
[8] = system: DMS-114
[9] = system: DMS-273
[10] = system: EKVX
[11] = system: HCC 2998
[12] = system: HCT-116
[13] = system: HL-60
[14] = system: HOP-18
[15] = system: HOP-62
[16] = system: HT-29
[17] = system: IGROV-1
[18] = system: K562
[19] = system: KM-20L2
[20] = system: KM12
[21] = system: LOX IMVI
[22] = system: LXFL 529
[23] = system: M14
[24] = system: M19-MEL
[25] = system: MOLT-4
[26] = system: Malme-3M
[27] = system: NCI-H226
[28] = system: NCI-H23
[29] = system: NCI-H460
[30] = system: NCI-H522
[31] = system: OVCAR-3
[32] = system: OVCAR-4
[33] = system: OVCAR-5
[34] = system: OVCAR-8
[35] = system: RPMI-8226
[36] = system: RXF 393
[37] = system: SF-268
[38] = system: SF-295
[39] = system: SF-539
[40] = system: SK-MEL-28
[41] = system: SK-MEL-2
[42] = system: SK-OV-3
[43] = system: SN12C
[44] = system: SNB-19
[45] = system: SNB-75
[46] = system: SNB-78
[47] = system: SR
[48] = system: SW-620
[49] = system: TK-10
[50] = system: U-251
[51] = system: UACC-257
[52] = system: UACC-62
[53] = system: UO-31
[54] = system: XF498
[55] = system: HOP-92
[56] = system: RXF 631
[57] = system: A498
[58] = system: HCT-15
[59] = system: SK-MEL-5

For `OCC(O)C(O)C(O)c1nn(-c2ccc(Cl)cc2)c2nc3cc(Cl)c(Cl)cc3nc12` (centres undefined), the GI50 [1] was 65.6 µM (inactive), the GI50 [2] was 32.4 µM (inactive) and the GI50 [3] was 73.1 µM (inactive). For the same molecule, the GI50 [4] was > 100 µM (inactive), the GI50 [5] was 52.1 µM (inactive) and the GI50 [6] was > 100 µM (inactive). The GI50 [7] was > 100 µM (inactive), the GI50 [8] was 94.4 µM (inactive) and the GI50 [9] was > 100 µM (inactive). For the same molecule, the GI50 [10] was 22.8 µM (inactive), the GI50 [11] was 60.1 µM (inactive) and the GI50 [12] was > 100 µM (inactive). The GI50 [13] was > 100 µM (inactive), the GI50 [14] was 31.9 µM (inactive) and the GI50 [15] was 20.1 µM (inactive). For the same molecule, the GI50 [16] was > 100 µM (inactive), the GI50 [17] was 31.8 µM (inactive) and the GI50 [18] was 50.8 µM (inactive). For the same molecule, the GI50 [19] was > 100 µM (inactive), the GI50 [20] was > 10 µM (inactive) and the GI50 [21] was 39.3 µM (inactive). For the same molecule, the GI50 [22] was 33 µM (inactive), the GI50 [23] was 22.7 µM (inactive) and the GI50 [24] was > 100 µM (inactive). The GI50 [25] was 52.5 µM (inactive), the GI50 [26] was 15.2 µM (inactive) and the GI50 [27] was 21.1 µM (inactive). The GI50 [28] was 19.2 µM (inactive), the GI50 [29] was 68.7 µM (inactive) and the GI50 [30] was 27.1 µM (inactive). For the same molecule, the GI50 [31] was > 100 µM (inactive), the GI50 [32] was > 100 µM (inactive) and the GI50 [33] was > 100 µM (inactive). The GI50 [34] was 22.5 µM (inactive), the GI50 [35] was > 100 µM (inactive) and the GI50 [36] was 21.8 µM (inactive). For the same molecule, the GI50 [37] was 71.1 µM (inactive), the GI50 [38] was 67.6 µM (inactive) and the GI50 [39] was 42.8 µM (inactive). The GI50 [40] was 61.1 µM (inactive), the GI50 [41] was 24.8 µM (inactive) and the GI50 [42] was 23.8 µM (inactive). The GI50 [43] was > 100 µM (inactive), the GI50 [44] was 33.7 µM (inactive) and the GI50 [45] was 3.66 µM (inactive). For the same molecule, the GI50 [46] was 20.7 µM (inactive), the GI50 [47] was > 100 µM (inactive) and the GI50 [48] was > 100 µM (inactive). The GI50 [49] was 32.4 µM (inactive), the GI50 [50] was 57.5 µM (inactive) and the GI50 [51] was 86.3 µM (inactive). The GI50 [52] was 47 µM (inactive), the GI50 [53] was 71.6 µM (inactive) and the GI50 [54] was 11.1 µM (inactive).

For `CCCN(CCC)C1CC(n2cc(C)c(=O)[nH]c2=O)OC1CO` (centres undefined), the GI50 [1] was > 100 µM (inactive), the GI50 [3] was > 100 µM (inactive) and the GI50 [4] was > 100 µM (inactive). For the same molecule, the GI50 [5] was > 100 µM (inactive), the GI50 [6] was > 100 µM (inactive) and the GI50 [7] was > 100 µM (inactive). For the same molecule, the GI50 [8] was > 100 µM (inactive), the GI50 [9] was > 100 µM (inactive) and the GI50 [11] was > 100 µM (inactive). The GI50 [12] was > 100 µM (inactive), the GI50 [13] was > 100 µM (inactive) and the GI50 [15] was > 100 µM (inactive). The GI50 [55] was > 100 µM (inactive), the GI50 [17] was > 100 µM (inactive) and the GI50 [18] was > 100 µM (inactive). For the same molecule, the GI50 [22] was > 100 µM (inactive), the GI50 [23] was > 100 µM (inactive) and the GI50 [24] was > 100 µM (inactive). The GI50 [25] was > 100 µM (inactive), the GI50 [26] was > 100 µM (inactive) and the GI50 [27] was > 100 µM (inactive). The GI50 [28] was > 100 µM (inactive), the GI50 [29] was > 100 µM (inactive) and the GI50 [30] was > 100 µM (inactive). The GI50 [32] was > 100 µM (inactive), the GI50 [35] was > 100 µM (inactive) and the GI50 [56] was > 100 µM (inactive). The GI50 [37] was > 100 µM (inactive), the GI50 [39] was > 100 µM (inactive) and the GI50 [40] was > 100 µM (inactive). For the same molecule, the GI50 [41] was > 100 µM (inactive), the GI50 [42] was > 100 µM (inactive) and the GI50 [43] was > 100 µM (inactive). The GI50 [45] was > 100 µM (inactive), the GI50 [46] was > 100 µM (inactive) and the GI50 [47] was > 100 µM (inactive). For the same molecule, the GI50 [52] was > 100 µM (inactive) and the GI50 [53] was > 100 µM (inactive).

In the case of `COC(=O)N/N=C(/Cc1occc(=O)c1O)C(=O)Nc1ccc([N+](=O)[O-])cc1[N+](=O)[O-]`, the GI50 [1] was > 100 µM (inactive), the GI50 [57] was > 100 µM (inactive) and the GI50 [2] was > 100 µM (inactive). For the same molecule, the GI50 [3] was > 100 µM (inactive), the GI50 [4] was > 100 µM (inactive) and the GI50 [5] was > 100 µM (inactive). For the same molecule, the GI50 [6] was > 100 µM (inactive), the GI50 [7] was > 100 µM (inactive) and the GI50 [8] was > 100 µM (inactive). For the same molecule, the GI50 [9] was > 100 µM (inactive), the GI50 [10] was > 100 µM (inactive) and the GI50 [11] was > 100 µM (inactive). The GI50 [12] was > 100 µM (inactive), the GI50 [58] was > 100 µM and the GI50 [13] was > 100 µM (inactive). The GI50 [14] was > 100 µM (inactive), the GI50 [15] was > 100 µM (inactive) and the GI50 [55] was > 100 µM (inactive). For the same molecule, the GI50 [16] was > 100 µM (inactive), the GI50 [17] was > 100 µM (inactive) and the GI50 [18] was > 100 µM (inactive). For the same molecule, the GI50 [19] was > 100 µM (inactive), the GI50 [20] was > 100 µM (inactive) and the GI50 [21] was > 100 µM (inactive). The GI50 [22] was > 100 µM (inactive), the GI50 [23] was > 100 µM (inactive) and the GI50 [24] was > 100 µM (inactive). The GI50 [25] was > 100 µM (inactive), the GI50 [26] was > 100 µM (inactive) and the GI50 [27] was > 100 µM (inactive). For the same molecule, the GI50 [28] was > 100 µM (inactive), the GI50 [29] was > 100 µM (inactive) and the GI50 [30] was > 100 µM (inactive). For the same molecule, the GI50 [32] was > 100 µM (inactive), the GI50 [33] was > 100 µM (inactive) and the GI50 [34] was > 100 µM (inactive). The GI50 [35] was > 100 µM (inactive), the GI50 [36] was > 100 µM (inactive) and the GI50 [37] was > 100 µM (inactive). For the same molecule, the GI50 [38] was > 100 µM (inactive), the GI50 [39] was > 100 µM (inactive) and the GI50 [40] was > 100 µM (inactive). The GI50 [41] was > 100 µM (inactive), the GI50 [59] was > 100 µM (inactive) and the GI50 [42] was > 100 µM (inactive). The GI50 [43] was > 100 µM (inactive), the GI50 [44] was > 100 µM (inactive) and the GI50 [45] was > 100 µM (inactive). For the same molecule, the GI50 [46] was > 100 µM (inactive), the GI50 [47] was > 100 µM (inactive) and the GI50 [48] was > 100 µM (inactive). For the same molecule, the GI50 [49] was > 100 µM (inactive), the GI50 [50] was > 100 µM (inactive) and the GI50 [51] was > 100 µM (inactive). The GI50 [52] was > 100 µM (inactive), the GI50 [53] was > 100 µM (inactive) and the GI50 [54] was > 100 µM (inactive).

Source: ChEMBL document CHEMBL1201862, “PubChem BioAssay data set” (2004)
